Experimental data: paper PMC2912288 (International journal of pharmaceutics, 2010)
Entries after “also recorded” stand apart in the source; their conditions may differ. Where two headings read alike, the source gives them in different places.

Experiments:
[1] = biological target: T1, human apical sodium-dependent bile acid transporter (ASBT) (Homo sapiens, UniProt Q12908); assay: Inhibition of taurocholate uptake by prodrugs in ASBT-MDCK monolayers; format: cell-based; details: taurocholate uptake into ASBT-MDCK monolayers, 10 min
T1 sequence (Q12908 1-348): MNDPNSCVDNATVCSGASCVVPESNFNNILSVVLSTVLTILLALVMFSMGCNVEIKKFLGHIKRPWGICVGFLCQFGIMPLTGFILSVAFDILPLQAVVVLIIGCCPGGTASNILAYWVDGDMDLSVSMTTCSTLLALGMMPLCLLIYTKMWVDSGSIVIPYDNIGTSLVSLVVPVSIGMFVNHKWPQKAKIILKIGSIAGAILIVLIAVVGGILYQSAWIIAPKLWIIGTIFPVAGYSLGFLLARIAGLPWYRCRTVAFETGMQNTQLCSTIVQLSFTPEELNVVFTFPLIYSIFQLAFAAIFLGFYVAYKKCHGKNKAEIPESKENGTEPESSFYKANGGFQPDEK

[2] = ref Porter and Kaplan, 2009; cited from earlier work
[3] = of the drug moiety; source not stated; cited from earlier work
[4] = biological target: T1, human apical sodium-dependent bile acid transporter (ASBT); assay: Uptake of prodrug into ASBT-MDCK monolayers
Pept1 [5] = details: CHO-PepT1; ref Han et al., 1998; cited from earlier work
[6] = ref Burnette and de, 1994; cited from earlier work
Pept1 [7] = details: Xenopus laevis oocytes; ref Balimane et al., 1998; cited from earlier work
[8] = prodrug uptake into ASBT-MDCK, 1–500 μM, 10 min, 37°C, mean (±SEM) of three measurements

For `CC(C(=O)O)c1cccc(C(=O)c2ccccc2)c1` (stereo not drawn) [ketoprofen, Ketoprofen], the “ASBT inhibition (result in words)” value [1] was “Neither ketoprofen nor niacin was ASBT inhibitor; also recorded: not reduced”.
In the case of `O=C(O)c1cccnc1` [niacin, nicotinic acid], the half-life [2] is listed as 20 to 45 min, the “ASBT inhibition (result in words)” value [1] is listed as “Neither ketoprofen nor niacin was ASBT inhibitor; also recorded: not reduced” and the “Log P” value [3] is listed as 0.25.
`C[C@H](CCC(=O)NCCS(=O)(=O)O)[C@H]1CC[C@H]2[C@@H]3[C@H](O)C[C@@H]4C[C@H](O)CC[C@]4(C)[C@H]3C[C@H](O)[C@]12C` [taurocholate, Taurocholic acid] showed a Kt ([4]; taurocholate, obtained from a pooled data analysis approach) of 5.03 µM.
In the case of `CC(C)[C@H](N)C(=O)OCCOCn1cnc2c(=O)[nH]c(N)nc21` [valacyclovir], the Ki (Pept1 [5]) is listed as 1100 µM, the “increase of acyclovir bioavailability” value [6] is listed as 3 fold and the Ki (Pept1 [7]) is listed as 4080 µM.
With CDCA-lysine-ketoprofen the “transport capacity relative to the capacity for taurocholate” value ([4]; from normJmax) was 1.87 fold and the Kt [4, 8] was 50.8 (±23.2) μM.
In the case of CDCA-lysine-niacin, the “ASBT's capacity to transport, relative to that of taurocholate” value ([4]; from normJmax) is reported as “about 9%” and the Kt [4, 8] is reported as 8.22 (±3.63) μM.
